Common to all, as to type: functional
Test [1] can be described thus: Growth inhibition of human HeLa cells after 48 hrs by SRB assay.
Test [2] in a line: Growth inhibition of human MDA-MB-231 cells after 48 hrs by SRB assay. The note with it: MDA-MB-231, 48 h.
A short description of test [3]: Growth inhibition of human IMR32 cells after 48 hrs by SRB assay. To be noted: IMR-32, 48 h.
Test [4] can be described thus: Growth inhibition of human MiaPaCa cells after 48 hrs by SRB assay. The note with it: MIA PaCa-2, 48 h.

Each structure is given as a SMILES string. Where only a bound is given, the exact number is not on record here.

With `O=C(CCN1C(=O)CSc2ccccc21)N1CCSCC1`, the GI50 is 18.5 µM in test [1] (read-out: GI50); 18.6 µM in test [1] (read-out: pGI50 (converted)); 6 µM in test [2]; 21.7 µM in test [3]; greater than 100 µM in test [4].

On to `O=C(CCN1C(=O)CSc2ccccc21)NCCCN1CCC(Cc2ccccc2)CC1`, for which the GI50 was 56.2 µM in test [1] (read-out: GI50); 56.2 µM in test [1] (read-out: pGI50 (converted)); 27.6 µM in test [2]; 1.5 µM in test [3]; greater than 100 µM in test [4].

As to `O=C(CCN1C(=O)CSc2ccccc21)NCCCN1CCN(c2ccc(C(F)(F)F)cc2)CC1`, the GI50 in test [1] (read-out: GI50) is 5.7 µM; in test [1] (read-out: pGI50 (converted)) it was 5.75 µM; in test [2], 20.4 µM; in test [3], 1.4 µM; in test [4], greater than 100 µM.

As for `CC(C)(C)OC(=O)N1CCN(C(=O)CCN2C(=O)CSc3ccccc32)CC1`, the GI50 in test [1] (read-out: GI50) was greater than 100 µM; in test [1] (read-out: pGI50 (converted)), 100 µM; in test [2], greater than 100 µM; in test [3], greater than 100 µM; in test [4], 51.5 µM.

As for `O=C(CCN1C(=O)CSc2ccccc21)N1CCN(c2ccc([N+](=O)[O-])cc2)CC1`, the GI50 in test [1] (read-out: GI50) is 8.4 µM; in test [1] (read-out: pGI50 (converted)), 8.32 µM; in test [2], 5.6 µM; in test [3], 0.34 µM; in test [4], 68.1 µM.

As for `O=C(CCN1C(=O)CSc2ccccc21)NCCCN1CCN(c2ccccc2)CC1`, the GI50 was 2.17 µM in test [1] (read-out: GI50); 2.19 µM in test [1] (read-out: pGI50 (converted)); less than 0.01 µM in test [2]; greater than 100 µM in test [3]; greater than 100 µM in test [4].

As to `O=C(CCN1C(=O)CSc2ccccc21)N1CCN(c2ccc(F)cc2)CC1`, the GI50 in test [1] (read-out: GI50) was 5.4 µM; in test [1] (read-out: pGI50 (converted)) it was 5.37 µM; in test [2] it was 2.2 µM; in test [3], 10 µM; in test [4], greater than 100 µM.

As for `COc1ccccc1N1CCN(CCCNC(=O)CCN2C(=O)CSc3ccccc32)CC1`, the GI50 was 0.97 µM in test [1] (read-out: GI50); 0.977 µM in test [1] (read-out: pGI50 (converted)); 2 µM in test [2]; greater than 100 µM in test [3]; 59.2 µM in test [4].

For `COc1cccc2c1C(=O)c1c(O)c3c(c(O)c1C2=O)C[C@@](O)(C(=O)CO)C[C@@H]3O[C@H]1C[C@H](N)[C@H](O)[C@H](C)O1` [DOXORUBICIN], the GI50 is 0.083 µM in test [1] (read-out: GI50); 0.0832 µM in test [1] (read-out: pGI50 (converted)); 0.073 µM in test [2]; 0.025 µM in test [3]; 0.095 µM in test [4].

Take `CC(=O)O[C@H]1C(=O)[C@@]2(C)[C@H]([C@H](OC(=O)c3ccccc3)[C@]3(O)C[C@H](OC(=O)[C@H](O)[C@@H](NC(=O)c4ccccc4)c4ccccc4)C(C)=C1C3(C)C)[C@]1(OC(C)=O)CO[C@@H]1C[C@@H]2O` [PACLITAXEL]: the GI50 in test [1] (read-out: GI50) was 0.039 µM; in test [1] (read-out: pGI50 (converted)) it was 0.0389 µM; in test [2] it was 0.092 µM; in test [3], 0.086 µM; in test [4], 0.06 µM.

Take `O=C(CCN1C(=O)CSc2ccccc21)NCCCN1CCN(c2ccccc2F)CC1`: the GI50 in test [1] (read-out: GI50) was 1.4 µM; in test [1] (read-out: pGI50 (converted)), 1.41 µM; in test [2] it was 4.6 µM; in test [3], 1.4 µM; in test [4], greater than 100 µM.

On to `O=C(CCN1C(=O)CSc2ccccc21)N1CCN(c2ccccc2)CC1`, for which the GI50 is 41.9 µM in test [1] (read-out: GI50); 41.7 µM in test [1] (read-out: pGI50 (converted)); 5.4 µM in test [2]; less than 0.01 µM in test [3]; greater than 100 µM in test [4].

For `O=C(CCN1C(=O)CSc2ccccc21)N1CCN(c2ccccc2F)CC1`, the GI50 in test [1] (read-out: GI50) is 61 µM; in test [1] (read-out: pGI50 (converted)) it was 61.7 µM; in test [2], 1.6 µM; in test [3], greater than 100 µM; in test [4], greater than 100 µM.

On to `COc1ccccc1N1CCN(C(=O)CCN2C(=O)CSc3ccccc32)CC1`, for which the GI50 was 11.9 µM in test [1] (read-out: GI50); 12 µM in test [1] (read-out: pGI50 (converted)); 6.6 µM in test [2]; greater than 100 µM in test [3]; 34.9 µM in test [4].

As for `O=C(CCN1C(=O)CSc2ccccc21)N1CCC(Cc2ccccc2)CC1`, the GI50 is 17.7 µM in test [1] (read-out: GI50); 17.8 µM in test [1] (read-out: pGI50 (converted)); 3.8 µM in test [2]; 0.1 µM in test [3]; 56.8 µM in test [4].

As to `O=C(CCN1C(=O)CSc2ccccc21)NCCCN1CCSCC1`, the GI50 is 0.12 µM in test [1] (read-out: GI50); 0.12 µM in test [1] (read-out: pGI50 (converted)); 0.63 µM in test [2]; 0.82 µM in test [3]; 83.3 µM in test [4].

Consider `O=C(CCN1C(=O)CSc2ccccc21)NCCCN1CCN(c2ccc([N+](=O)[O-])cc2)CC1`, for which the GI50 in test [1] (read-out: GI50) was greater than 100 µM; in test [1] (read-out: pGI50 (converted)) it was 100 µM; in test [2], greater than 100 µM; in test [3], 0.46 µM; in test [4] it was greater than 100 µM.

Turning to `O=C(CCN1C(=O)CSc2ccccc21)N1CCN(c2ccc(C(F)(F)F)cc2)CC1`, the GI50 in test [1] (read-out: GI50) was 4.2 µM; in test [1] (read-out: pGI50 (converted)) it was 4.17 µM; in test [2], 1 µM; in test [3] it was 46.4 µM; in test [4], greater than 100 µM.

These data come from ChEMBL document CHEMBL3871304, “Novel benzothiazine-piperazine derivatives by peptide-coupling as potential anti-proliferative agents” (2017).
